Patent US20160083400A1, “TRICYCLIC GUANIDINE DERIVATIVE” (Sunovion Pharmaceuticals Inc., priority 2014, published 2016)
pIC50: −log10 of the molar value.

Experiments:
Format in all cases: biochemical
[1] = biological target: PDE1C (Homo sapiens, UniProt Q14123); assay: In vitro HTRF PDE1 inhibition assay (PDE1C)
Source text: (§1) An exemplary procedure for the in vitro Homogenous Time Resolved Fluorescence (HTRF) assay, which can be used to determine the inhibitory action of compounds of the invention toward PDE1 or its isoforms, follows.
(§2) The HTRF PDE1 assay utilized the HTRF technology, which is based on the competition between unlabeled cyclic nucleotide and cyclic nucleotide labeled with XL665 for the binding to cyclic nucleotide-specific antibody labeled with cryptate. The HTRF signal is thus inversely proportional to the concentration of cyclic nucleotide being measured. Since phosphodiesterases break down cyclic nucleotides the HTRF signal was used to determine PDE activity.
(§3) The Cisbio cGMP HTRF assay kit (Cat no: 62GM2PEC) was utilized. Cyclic GMP was diluted to 200 nM in HTRF assay buffer (1 mM CaCl2, 10 mM MgCl2, 10 mM Tris-HCl, 0.1% BSA, pH7.4). 10 μl of compound or DMSO was diluted in 200 nM cyclic GMP solution and added to wells of a 96 well white plate to give 100 nM cyclic GMP in 1% DMSO final concentration. PDE (1A3, 1B or 1C) was diluted to 2× working concentration in HTRF assay buffer with 4 μg/ml Calmodulin, and 10 μl was added to initiate the reaction. The plate was then incubated for 45 minutes at 37° C. d2-Labelled cyclic GMP and anti-cGMP cryptate were diluted in 50 mM phosphate buffer, 0.8M KF, 1% Triton X100, 0.2% BSA, pH7.0. Following incubation 10 μl d2-cGMP, then 10 μl anti cGMP cryptate were added to each well and the plate was incubated for 45 minutes at rt. The plate was then read on Perkin Elmer Victor at 2 different FRET readings ex/emm 340 nm/665 nm and 340 nm/615 nm.
(§4) Compounds having an IC50 of <1 μM, are denoted as +++. Compounds having an IC50 of 1-10 μM, are denoted as ++. Compounds having an IC50 of 10-100 μM, are denoted as +.

[2] = biological target: PDE1A (PDE 1A3) (Homo sapiens, UniProt P54750); assay: In vitro HTRF PDE1 inhibition assay (PDE1A); conditions: PDE1A (1A3); 100 nM cyclic GMP, calmodulin, 45 minutes at 37° C.
Sequence of PDE1A (PDE 1A3) (P54750 whole entry): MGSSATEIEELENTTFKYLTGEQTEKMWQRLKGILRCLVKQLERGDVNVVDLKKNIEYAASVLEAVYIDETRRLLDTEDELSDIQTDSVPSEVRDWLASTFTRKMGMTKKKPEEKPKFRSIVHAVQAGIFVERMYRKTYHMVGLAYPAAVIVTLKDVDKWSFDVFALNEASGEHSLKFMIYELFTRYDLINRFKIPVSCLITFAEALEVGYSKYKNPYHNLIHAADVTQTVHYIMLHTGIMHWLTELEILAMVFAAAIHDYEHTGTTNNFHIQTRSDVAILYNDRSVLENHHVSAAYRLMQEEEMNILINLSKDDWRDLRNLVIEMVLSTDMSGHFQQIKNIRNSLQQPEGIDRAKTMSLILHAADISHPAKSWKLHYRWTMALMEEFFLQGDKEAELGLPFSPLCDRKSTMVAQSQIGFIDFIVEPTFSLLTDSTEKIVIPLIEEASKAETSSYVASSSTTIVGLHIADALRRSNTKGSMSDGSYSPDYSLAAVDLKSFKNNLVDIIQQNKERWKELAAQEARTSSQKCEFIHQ
Source text: as §1, §2, §3, §4

[3] = biological target: PDE1B (Homo sapiens, UniProt Q01064); assay: In vitro HTRF PDE1 inhibition assay (PDE1B); conditions: 100 nM cyclic GMP, calmodulin, 45 minutes at 37° C.
Sequence of PDE1B (Q01064 whole entry): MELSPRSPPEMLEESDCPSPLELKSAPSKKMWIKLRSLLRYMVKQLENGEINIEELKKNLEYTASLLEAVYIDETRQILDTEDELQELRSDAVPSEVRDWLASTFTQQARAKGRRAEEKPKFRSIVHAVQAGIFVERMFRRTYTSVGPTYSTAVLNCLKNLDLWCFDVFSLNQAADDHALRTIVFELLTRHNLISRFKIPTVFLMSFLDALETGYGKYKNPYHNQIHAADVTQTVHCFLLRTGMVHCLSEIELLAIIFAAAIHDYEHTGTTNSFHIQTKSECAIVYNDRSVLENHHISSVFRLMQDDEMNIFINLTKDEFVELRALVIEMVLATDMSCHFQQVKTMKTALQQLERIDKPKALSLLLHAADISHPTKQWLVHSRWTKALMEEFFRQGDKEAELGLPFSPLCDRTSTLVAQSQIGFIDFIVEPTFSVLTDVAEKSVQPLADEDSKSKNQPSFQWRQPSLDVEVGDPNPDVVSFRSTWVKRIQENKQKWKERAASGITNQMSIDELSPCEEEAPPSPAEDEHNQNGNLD
Description: The Cisbio cGMP HTRF assay kit (Cat no: 62GM2PEC) was utilized. Cyclic GMP was diluted to 200 nM in HTRF assay buffer (1 mM CaCl2, 10 mM MgCl2, 10 mM Tris-HCl, 0.1% BSA, pH7.4). […] PDE (1A3, 1B or 1C) was diluted to 2× working concentration in HTRF assay buffer with 4 μg/ml Calmodulin, and 10 μl was added to initiate the reaction. The plate was then incubated for 45 minutes at 37° C. d2-Labelled cyclic GMP and anti-cGMP cryptate were diluted in 50 mM phosphate buffer, 0.8M KF, 1% Triton X100, 0.2% BSA, pH7.0. Following incubation 10 μl d2-cGMP, then 10 μl anti cGMP cryptate were added to each well and the plate was incubated for 45 minutes at rt. The plate was then read on Perkin Elmer Victor at 2 different FRET readings ex/emm 340 nm/665 nm and 340 nm/615 nm.

Sequence of PDE1C (Q14123 whole entry, canonical isoform): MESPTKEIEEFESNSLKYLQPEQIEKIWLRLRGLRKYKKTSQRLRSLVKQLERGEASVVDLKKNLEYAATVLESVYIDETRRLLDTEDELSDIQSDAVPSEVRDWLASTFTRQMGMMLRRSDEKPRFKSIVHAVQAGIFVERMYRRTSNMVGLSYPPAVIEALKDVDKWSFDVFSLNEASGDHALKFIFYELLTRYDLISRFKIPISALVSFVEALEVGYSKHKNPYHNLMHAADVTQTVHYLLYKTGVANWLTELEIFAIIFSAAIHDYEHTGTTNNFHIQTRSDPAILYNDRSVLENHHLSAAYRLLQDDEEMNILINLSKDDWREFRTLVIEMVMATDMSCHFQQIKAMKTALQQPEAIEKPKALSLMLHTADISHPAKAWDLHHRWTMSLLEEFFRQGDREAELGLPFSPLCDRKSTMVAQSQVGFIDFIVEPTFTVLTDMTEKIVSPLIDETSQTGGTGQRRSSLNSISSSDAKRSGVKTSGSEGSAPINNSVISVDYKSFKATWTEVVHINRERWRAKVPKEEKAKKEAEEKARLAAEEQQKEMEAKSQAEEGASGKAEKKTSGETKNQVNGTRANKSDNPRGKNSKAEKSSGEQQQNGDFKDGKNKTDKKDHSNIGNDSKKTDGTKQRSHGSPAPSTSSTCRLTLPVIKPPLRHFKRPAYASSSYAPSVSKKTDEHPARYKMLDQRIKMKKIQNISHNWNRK

SMILES	pIC50 [1]	IC50 [2] [µM]	IC50 [3] [µM]
O=c1c2cnc(C3COC3)n2nc2n1CC[C@H](c1ccc(Cl)cc1)N2 [Example 165]	5.00 to 6.00	< 1	< 1
Cc1ccc([C@H]2CN3C(=O)c4cnc(C(C)C)n4NC3=N2)cc1 [Example 96, (2S)-8-Isopropyl-2-(4-methylphenyl)-2,10-dihydro-3H,5H-diimidazo[2,1-c:5′,1′-f][1,2,4]triazin-5-one]	> 6.00	< 1	< 1
CC(C)c1ncnc2c(=O)n3c(nc12)NC(c1ccc(Cl)cc1)CC3 (stereo not drawn) [Example 176]	5.00 to 6.00	< 1	< 1
O=c1c2cnc(C3CCCC3)n2nc2n1CC[C@H](c1ccc(Cl)cc1)N2 [Example 61]	> 6.00	< 1	< 1
CC(C)c1ncc2c(=O)n3c(nn12)NCCC3 [Example 52]	5.00 to 6.00	1 to 10	< 1
O=c1c2cnc(C3CCOCC3)n2nc2n1CC[C@H](c1ccc(Cl)cc1)N2 [Example 69, (2R)-2-(4-Chlorophenyl)-9-(tetrahydro-2H-pyran-4-yl)-1,2,3,4-tetrahydro-6H-imidazo[5,1-f]pyrimido[2,1-c][1,2,4]triazin-6-one]	> 6.00	< 1	< 1
O=c1c2cnc(C3CC=CCC3)n2nc2n1CC[C@H](c1ccc(Cl)cc1)N2 (stereo partly drawn) [Example 243]	–	–	< 1
CC(C)c1ncc2n1NC1=N[C@H](c3ccc(Cl)cc3)CN1C2=O [Example 136, (2R)-2-(4-Chlorophenyl)-8-isopropyl-2,10-dihydro-3H,5H-diimidazo[2,1-c:5′,1′-f][1,2,4]triazin-5-one]	–	–	< 1
CC(C)c1nccc2c(=O)n3c(nc12)NC(c1ccc(Cl)cc1)CC3 (stereo not drawn) [Example 173]	–	–	< 1
N#Cc1ccc(C2CCn3c(nn4c(C5CCC5)ncc4c3=O)N2)cc1 (stereo not drawn) [Example 95]	–	–	< 1
Cc1ncc(CC2CCn3c(nc4c(cnn4C4CCCC4)c3=O)N2)cn1 (stereo not drawn) [Example 71]	–	–	1 to 10
N#Cc1ccc(C2CCn3c(nc4c(C5CCOCC5)onc4c3=O)N2)cc1 (stereo not drawn) [Example 156]	–	–	10 to 100
CC(C)n1ncc2c(=O)n3c(nc21)N[C@H](c1ccc(Cl)cc1)C3 [Example 143]	–	–	< 1
CC(C)c1ncc2n1NC1=N[C@@H](c3ccc(Cl)cc3)CN1C2=O [Example 137, (2S)-2-(4-Chlorophenyl)-8-isopropyl-2,10-dihydro-3H,5H-diimidazo[2,1-c:5′,1′-f][1,2,4]triazin-5-one]	–	–	< 1
COc1ccc([C@H]2Cn3c(nc4c(cnn4C(C)C)c3=O)N2)cc1 [Example 146]	–	–	< 1
Cc1ccc(CC2CCn3c(nc4c(cnn4C4CCCC4)c3=O)N2)cn1 (stereo not drawn) [Example 42]	–	–	1 to 10
COc1ccc(CC2CCn3c(nc4c(cnn4C(C)C)c3=O)N2)cc1 (stereo not drawn) [Example 13]	–	–	< 1
CC(C)c1onc2c(=O)n3c(nc12)N[C@@H](c1ccc(Cl)cc1)CC3 [Example 152, (6R)-6-(4-Chlorophenyl)-3-isopropyl-4,6,7,8-tetrahydro-10H-[1,2]oxazolo[4,3-d]pyrimido[1,2-a]pyrimidin-10-one]	–	–	1 to 10
N#Cc1ccc(C2CCn3c(nn4c(C5CCOCC5)ncc4c3=O)N2)cc1 (stereo not drawn) [Example 93]	–	–	< 1
COc1ccc([C@H]2CN3C(=O)c4cnc(C5(C(F)(F)F)CC5)n4NC3=N2)cc1 [Example 256, (2S)-2-(4-Methoxyphenyl)-8-[1-(trifluoromethyl)cyclopropyl]-2,10-dihydro-3H,5H-diimidazo[2,1-c:5′,1′-f][1,2,4]triazin-5-one]	–	–	< 1
C[C@H](O)c1ncc2c(=O)n3c(nn12)N[C@@H](c1ccc(Cl)cc1)CC3 [Example 249]	–	–	1 to 10
COC(C)(C)c1ncc2c(=O)n3c(nn12)N[C@@H](c1ccc(Cl)cc1)CC3 [Example 240]	–	–	< 1
COc1ccc(CC2CCn3c(nn4c(C5CCOCC5)ncc4c3=O)N2)cc1 (stereo not drawn) [Example 58]	–	–	< 1
O=c1c2cnc(C3CCC3)n2nc2n1CCC(c1ccc(C(F)(F)F)cc1)N2 (stereo not drawn) [Example 64]	–	–	< 1
O=c1c2cnc(C3CCCC3)n2nc2n1CC[C@@H](c1ccc(Cl)cc1)N2 [Example 62]	–	–	< 1
CC(C)c1ncc2c(=O)n3c(nn12)NC(c1ccc(OCF)cc1)C3 (stereo not drawn) [Example 262, 2-[4-(Fluoromethoxy)phenyl]-8-isopropyl-2,10-dihydro-3H,5H-diimidazo[2,1-c:5′,1′-f][1,2,4]triazin-5-one]	–	–	< 1
O=c1c2cnn(C3CCOCC3)c2nc2n1C[C@H](c1ccc(Cl)cc1)N2 [Example 148]	–	–	< 1

SMILES	pIC50 [1]	IC50 [2] [µM]	IC50 [3] [µM]
CC(C)c1ncc2c(=O)n3c(nn12)NC(c1ccc(C(F)(F)F)cc1)CC3 (stereo not drawn) [Example 50]	–	–	< 1
O=c1c2cnn(C3CCCC3)c2nc2n1CC[C@H](c1ccc(Cl)cc1)N2 [Example 40]	–	–	< 1
C=C(C)c1ncc2c(=O)n3c(nn12)N[C@@H](c1ccc(Cl)cc1)CC3 [Example 241]	–	–	< 1
N#Cc1ccc(C2CCn3c(nc4c(C5CCCC5)onc4c3=O)N2)cc1 (stereo not drawn) [Example 154]	–	–	1 to 10
COc1cncc([C@H]2CCn3c(nn4c(C5CCCC5)ncc4c3=O)N2)c1 [Example 130]	–	–	< 1
C[C@@H](O)c1ncc2c(=O)n3c(nn12)N[C@@H](c1ccc(Cl)cc1)CC3 [Example 250]	–	–	< 1
CC(C)c1ncc2c(=O)n3c(nn12)NC(c1ccc(C#N)cn1)CC3 (stereo not drawn) [Example 92]	–	–	< 1
O=c1c2cnc(C(F)(F)F)n2nc2n1C[C@H](c1ccc(Cl)cc1)N2 [Example 251, (2S)-2-(4-Chlorophenyl)-8-(trifluoromethyl)-2,10-dihydro-3H,5H-diimidazo[2,1-c:5′,1′-f][1,2,4]triazin-5-one]	–	–	1 to 10
O=C1c2cnc([C@@H]3CCOC3)n2NC2=N[C@@H](c3ccc(Cl)cc3)CN12 [Example 185, (2S)-2-(4-Chlorophenyl)-8-[(3S)-tetrahydro-3-furanyl]-2,10-dihydro-3H,5H-diimidazo[2,1-c:5′,1′-f][1,2,4]triazin-5-one]	–	–	< 1
Cc1ncc(CC2CCn3c(nc4c(cnn4C(C)C)c3=O)N2)cn1 (stereo not drawn) [Example 72]	–	–	1 to 10
O=C1c2cnc([C@H]3CCOC3)n2NC2=N[C@@H](c3ccc(Cl)cc3)CN12 [Example 186, (2S)-2-(4-Chlorophenyl)-8-[(3R)-tetrahydro-3-furanyl]-2,10-dihydro-3H,5H-diimidazo[2,1-c:5′,1′-f][1,2,4]triazin-5-one]	–	–	< 1
COc1cc(C2CCn3c(nn4c(C(C)C)ncc4c3=O)N2)ccc1F (stereo not drawn) [Example 48]	–	–	< 1
COc1cccc([C@H]2CCn3c(nn4c(C5CCOCC5)ncc4c3=O)N2)c1 [Example 128]	–	–	< 1
Cc1cnc(CC2CCn3c(nc4c(cnn4C(C)C)c3=O)N2)nc1 (stereo not drawn) [Example 73]	–	–	1 to 10
O=c1c2cnc(C3CCC3)n2nc2n1CCC(Cc1ccc(Cl)cc1)N2 (stereo not drawn) [Example 66]	–	–	< 1
O=c1c2ccnc(C3CCOCC3)c2nc2n1CCC(c1ccc(Cl)cc1)N2 (stereo not drawn) [Example 172]	–	–	1 to 10
O=c1c2cnc(C3CCOCC3)n2nc2n1CCC1(CCCc3ccccc31)N2 (stereo not drawn) [Example 180]	–	–	1 to 10
O=c1c2cnn(C3CCOCC3)c2nc2n1CCC(c1ccc(Cl)cc1)N2 (stereo not drawn) [Example 43]	–	–	< 1
CC(C)c1onc2c(=O)n3c(nc12)NC(c1ccc(C#N)cc1)CC3 (stereo not drawn) [Example 157]	–	–	1 to 10
CO[C@H]1CC[C@@H](c2ncc3c(=O)n4c(nn32)N[C@@H](c2ccc(Cl)cc2)CC4)CC1 [Example 236]	–	–	1 to 10
O=c1c2cnc(C3CCOCC3)n2nc2n1CC[C@@H](c1ccc(Cl)cc1C(F)(F)F)N2 [Example 123]	–	–	1 to 10
O=c1c2cnc(C3CCOCC3)n2nc2n1CCC(Cc1ccc(Cl)cc1)N2 (stereo not drawn) [Example 59]	–	–	< 1
O=c1c2cnc(C3CCOCC3)n2nc2n1CCC1(CCc3ccccc31)N2 (stereo not drawn) [Example 177, 9-(Tetrahydro-2H-pyran-4-yl)-2′,3,3′,4-tetrahydro-1H,6H-spiro[imidazo[5,1-f]pyrimido[2,1-c][1,2,4]triazine-2,1′-inden]-6-one]	–	–	1 to 10
CC1(c2ncc3c(=O)n4c(nn23)N[C@@H](c2ccc(Cl)cc2)CC4)CCCC1 [Example 245]	–	–	< 1
N#Cc1ccc(C2Cn3c(nc4c(cnn4C4CCOCC4)c3=O)N2)cc1 (stereo not drawn) [Example 86, 4-[4-Oxo-1-(tetrahydro-2H-pyran-4-yl)-4,6,7,8-tetrahydro-1H-imidazo[1,2-a]pyrazolo[3,4-d]pyrimidin-7-yl]benzonitrile]	–	–	< 1
O=c1c2cnc(C3CCCC3)n2nc2n1CC[C@@H](c1cncc(Cl)c1)N2 [Example 134]	–	–	< 1
O=c1c2cnc(C3CCC3)n2nc2n1CCC(c1ccc(Cl)cc1)N2 (stereo not drawn) [Example 63]	–	–	< 1
